Test results from patent publication US20250387481A1, “PRE-TREATED T CELLS FOR USE AS A MEDICAMENT” (STICHTING HET NEDERLANDS KANKER INSTITUUT-ANTONI VAN …, priority 2022, published 2025).

Columns and labels:
[1] = test system: A375 (melanoma), EGL1 (hepatobiliary cancer) and MDA-MB-231 (breast cancer); KB1P organoids; test: Co-culture of cancer cells or KB1P organoids with T cells pretreated with vinblastine; format: cell-based, human; details: Jurkat or mouse splenic T cells pretreated with vinblastine; MTT, cleaved caspase 3
Text: Data are shown for three different cell lines derived from human cancer, namely A375 (melanoma), EGL1 (hepatobiliary cancer) and MDA-MB-231 (breast cancer). Organoid apoptosis (determined by cleaved caspase 3 staining) in breast cancer mouse KB1P organoids following co-culture with mouse splenic T cells pretreated with control, vinblastine or colchicine is also shown in FIG. 18. Data are presented as mean with SEM. N=3 biological repeats per repeat.

KB1P organoids = test: Co-culture of pre-treated splenic T cells with KB1P organoids (MTT, cleaved-caspase 3); format: cell-based, mouse; details: LCKi 10 μmol/L
[2] = test system: MMTV-PyMT organoids expressing OVA; test: Co-culture of OT I T cells with MMTV-PyMT organoids expressing OVA (cleaved-caspase 3); format: cell-based, mouse; details: LCKi 10 μmol/L
Method: Experiments were approved by the Animal Welfare Committee of the Netherlands Cancer Institute and were performed in accordance with national guidelines. Mice were housed in individually ventilated cage (IVC) systems under specific pathogen-free conditions and received chow and water ad libitum. FVB/NRj females (Janvier), C57BL/6-Tg (TcraTcrb) 1100Mjb/J females (OT I mice, Jackson laboratory), and ROSA26mTmG FVB females (NKI) were used at 8-20 weeks of age at the time of fat pad injection of tumor organoids or spleen isolation.
For T cells isolated from mouse mammary tumors, T cells were directly co-cultured with tumor organoids after FACS isolation. For T cells isolated from the spleen, T cells were treated for 72 h with PBS or with docetaxel (docetaxel 10 nmol/L), in the presence or absence of an LCKi (10 μmol/L, Merck Millipore, Cat. No. 213743-31-8). To evaluate the docetaxel-specificity of our observations, T cells were treated with paclitaxel 10 nmol/L or carboplatin 50 μmol/L for 72 h. Subsequently, T cells were collected and washed 3 times in PBS to remove residual chemotherapy or LCKi.
Organoids were fixed in 4% paraformaldehyde in PBS for 20 min at room temperature, followed by permeabilization in 0.2% TritonX-100 in PBS for 15 min at room temperature. […]

SMILES | T cell mediated cancer cell killing [1] | effect of LCK inhibition on docetaxel-increased cytotoxic activity of CD4 or CD8 T cells (KB1P organoids) | killing of OVA-expressing organoids by OT I T cells [2]
CC[C@]1(O)C[C@@H]2CN(CCc3c([nH]c4ccccc34)[C@@](C(=O)OC)(c3cc4c(cc3OC)N(C)[C@H]3[C@@](O)(C(=O)OC)[C@H](OC(C)=O)[C@]5(CC)C=CCN6CC[C@]43[C@@H]65)C2)C1 [Vinblastine, vinblastine] | induces T cell mediated cancer cell killing | – | –
Nc1ncnc2c1c(-c1ccc(Oc3ccccc3)cc1)cn2C1CCCC1 [LCKi] | – | did not impair | reduced killing
